Data: patent US9180115B2, “Cyclohexylamines” (Asana Biosciences, LLC, priority 2011, dated 2015)
One block for each compound: values may come before it.

System: sodium channel response in hTRPV1-N1E115 cells
Test: FLIPR membrane potential assay of sodium channel response in hTRPV1-N1E115 cells with or without heat (47° C.) activation
Assay type: cell-based
Conditions: for hTRPV1-N1E Nav 0.1 mM (% inhibition) 25° C. / hTRPV1-N1E Nav 1 mM (% inhibition) 25° C.: 25° C. (no heat activation); for IC50: 47° C., read-out: hTRPV1-N1E IC50 (μM) 47° C.; for hTRPV1-N1E Nav 0.1 mM (% inhibition) 47° C. / hTRPV1-N1E Nav 1 mM (% inhibition) 47° C.: 47° C. (heat activated)
Text: In one embodiment, a modified FLIPR® (Fluorometric Imaging Plate Reader) based assay system was developed which is capable of discriminating between non-specific versus hTRPV1-mediated entry of test compounds. Advantageously, the assay system utilizes heat activated opening of hTRPV1 channels followed by an assessment of internal sodium channel block. The assay allows a permanently charged compound to selectively enter through opened hTRPV1 channels and that compound's potency in inhibiting sodium channels from the cytoplasm side of the same cell can be assessed and quantified.
The test compounds are diluted in the Assay Buffer and added to each well of a specific 384-well ‘compound plate’, which serves as a source plate for compound addition using the FLIPR® platform. The concentration of compounds in the compound-plate was adjusted to achieve the desired final concentration when added to the cells in the ‘cell-plate’. After completion of the dye incubation period, the dye loaded cell-plates and the compound source plates are inserted into the FLIPR® Tetra device with a 384 FLIPR® tip box (Molecular Devices, Inc.) according to manufacturer's instructions. The compounds are robotically added to the dye loaded cell-plates using software integral to the FLIPR® Tetra instrument.
Immediately following compound addition, hTRPV1 is activated, in one of the duplicate cell plates, by heating. Specifically, entire multi-well plate containing the compound-cells mixture is incubated at 47° C. for 10 minutes, after which they are returned to room temperature (about 25° C.) for a further 30 minutes. Heat activation of hTRPV1 was omitted from the replicate cell plate which was simply maintained at room temperature for the entire 40 minutes.
A membrane potential response is elicited in the dye- and compound-loaded cells by the addition of veratridine which is a known sodium channel ‘agonist’. As illustrated in an example herein, an agonist plate containing veratridine (Sigma) is prepared in advance and is inserted into suitable devices such as, e.g., the FLIPR® TETRA device for a “2nd addition” as instructed by the manufacturer. The concentration of veratridine in the ‘agonist plate’ was adjusted to achieve a final concentration of 100 μM when added to the cells in the cell-plate. Final concentrations of veratridine greater or lesser than 100 μM may also be used but the signal measured by the FLIPR® TETRA device or another suitable device may vary accordingly.
The exposure of the cells in the cell-plate to veratridine induces sodium channels in the cells to open and the resulting ion flux produces a membrane potential depolarization that is detected as a fluorescence signal by the FLIPR® Tetra Device. The activity of test compounds is determined by their ability to attenuate the veratridine-induced fluorescence signal, the most promising compounds are those that show an enhanced activity in the heat-activated cell plate over the non-heat-activated cell plate. This differential activity reflects enhanced compound uptake via the heat activated and open hTRPV1 channels and rests on the fact that sodium channel block requires test compounds to act from the cytoplasmic side of the cell membrane.
In vitro assays were developed for assessing the inhibition of sodium channel response with compounds following stimulation by heat (47° C.) in cells expressing hTRPV1.
(v) Membrane potential Assay to Assess Sodium Channel Function in hTRPV1-Expressing Cells • Cells were plated at 5000 per 50 μL [DMEM+10% FBS+300 μg/mL H\hygromycin] per well, in a 384 clear bottom poly-D-lysine coated plate and incubated at 37° C. and 5% CO2 for 48 hours. On the day of the assay, media were discarded gently and 30 μL of the dye [FMP blue dye was prepared in assay buffer] per well was added and dye-loading was allowed to proceed for 20 min at room temperature. […]

IC50: 10 to 100 µM
Compound: Cc1cc(C)c(C(=O)O[C@H](C)C[N+](C)(C)C2CCCCC2)c(C)c1.[I-] [Example 25, (R)-N,N-Dimethyl-N-[2-((2,4,6-trimethylbenzoyl)oxy)propyl] cyclohexanaminium iodide]
hTRPV1-N1E Nav 0.1 mM (% inhibition) 25° C.: 48 (N = 4) %
hTRPV1-N1E Nav 1 mM (% inhibition) 25° C.: 89 (N = 4) %

IC50: 100 to 1000 µM
Compound: CC(C[N+](C)(C)C1CCCCC1)OC(=O)c1ccc(F)cc1C(F)(F)F.[I-] (centres unmarked) [Example 15, N-[2-((4-Fluoro-2-(trifluoromethyl)benzoyl)oxy)propyl]-N,N-dimethyl-cyclohexanaminium iodide]
hTRPV1-N1E Nav 0.1 mM (% inhibition) 25° C.: 6 (N = 4) %
hTRPV1-N1E Nav 0.1 mM (% inhibition) 47° C.: 45 (N = 4) %
hTRPV1-N1E Nav 1 mM (% inhibition) 25° C.: 59 (N = 4) %
hTRPV1-N1E Nav 1 mM (% inhibition) 47° C.: 92 (N = 4) %

IC50: 10 to 100 µM
Compound: Cc1cccc(C)c1C(=O)O[C@H](C)C[N+](C)(C)C1CCCCC1.[I-] [Example 24, (R)-N-[2-((2,6-Dimethylbenzoyl)oxy)propyl]-N,N-dimethyl-cyclohexanaminium iodide]
hTRPV1-N1E Nav 0.1 mM (% inhibition) 25° C.: 22 (N = 4) %
hTRPV1-N1E Nav 1 mM (% inhibition) 25° C.: 81 (N = 4) %

Compound: CC(C[N+](C)(C)C1CCCCC1)OC(=O)c1cccn1C.[I-] (centres unmarked) [Example 34, N,N-Dimethyl-N-[2-((1-methyl-1H-pyrrole-2-carbonyl)oxy)propyl] cyclohexanaminium iodide]
hTRPV1-N1E Nav 0.1 mM (% inhibition) 25° C.: 35 (N = 4) %
hTRPV1-N1E Nav 0.1 mM (% inhibition) 47° C.: 36 (N = 4) %
hTRPV1-N1E Nav 1 mM (% inhibition) 25° C.: 35 (N = 4) %
hTRPV1-N1E Nav 1 mM (% inhibition) 47° C.: 55 (N = 4) %

IC50: 10 to 100 µM
Compound: CC(C[N+](C)(C)C1CCCCC1)OC(=O)c1cc(Cl)cc(Cl)c1.[I-] (centres unmarked) [Example 19, N-[2-((3,5-Dichlorobenzoyl)oxy)propyl]-N,N-dimethyl-cyclohexanaminium iodide]
hTRPV1-N1E Nav 0.1 mM (% inhibition) 25° C.: 25 (N = 4) %
hTRPV1-N1E Nav 1 mM (% inhibition) 25° C.: 12 (N = 4) %
hTRPV1-N1E Nav 1 mM (% inhibition) 47° C.: 52 (N = 4) %

IC50: 100 to 1000 µM
Compound: CC(C[N+](C)(C)C1CCCCC1)OC(=O)c1cccc(C(F)(F)F)c1.[I-] (centres unmarked) [Example 16, N,N-Dimethyl-N-[2-((3-(trifluoromethyl)benzoyl)oxy)propyl] cyclohexanaminium iodide]
hTRPV1-N1E Nav 0.1 mM (% inhibition) 25° C.: 31 (N = 4) %
hTRPV1-N1E Nav 0.1 mM (% inhibition) 47° C.: 60 (N = 4) %
hTRPV1-N1E Nav 1 mM (% inhibition) 25° C.: 50 (N = 4) %
hTRPV1-N1E Nav 1 mM (% inhibition) 47° C.: 83 (N = 4) %

Compound: COc1cccc(OC)c1C(=O)OC(C)C[N+](C)(C)C1CCCCC1.[I-] (centres unmarked) [Example 7, N-[2-((2,6-Dimethoxybenzoyl)oxy)propyl]-N,N-dimethyl-cyclohexanaminium iodide]
hTRPV1-N1E Nav 0.1 mM (% inhibition) 25° C.: 1 (N = 4) %
hTRPV1-N1E Nav 0.1 mM (% inhibition) 47° C.: 28 (N = 4) %
hTRPV1-N1E Nav 1 mM (% inhibition) 25° C.: 0 (N = 4) %
hTRPV1-N1E Nav 1 mM (% inhibition) 47° C.: 70 (N = 4) %

IC50: 100 to 1000 µM
Compound: CC(C[N+](C)(C)C1CCCCC1)OC(=O)c1c(Cl)cccc1Cl.[I-] (centres unmarked) [Example 27, N-[2-((2,6-Dichlorobenzoyl)oxy)propyl]-N,N-dimethylcyclo-hexanaminium iodide]
hTRPV1-N1E Nav 0.1 mM (% inhibition) 25° C.: 23 (N = 4) %
hTRPV1-N1E Nav 0.1 mM (% inhibition) 47° C.: 73 (N = 4) %
hTRPV1-N1E Nav 1 mM (% inhibition) 25° C.: 74 (N = 4) %
hTRPV1-N1E Nav 1 mM (% inhibition) 47° C.: 85 (N = 4) %

IC50: 10 to 100 µM
Compound: Cc1cc(C)c(C(=O)OCC[N+](C)(C)C2CCCCC2)c(C)c1.[I-] [Example 41, N-[2-((2,4,6-Trimethylbenzoyl)oxy)ethyl]-N,N-dimethylcyclo-hexanaminium iodide]
hTRPV1-N1E Nav 0.1 mM (% inhibition) 25° C.: 13 (N = 4) %
hTRPV1-N1E Nav 0.1 mM (% inhibition) 47° C.: 66 (N = 4) %
hTRPV1-N1E Nav 1 mM (% inhibition) 25° C.: 22 (N = 4) %
hTRPV1-N1E Nav 1 mM (% inhibition) 47° C.: 89 (N = 4) %

IC50: 10 to 100 µM
Compound: CC(C[N+](C)(C)C1CCCCC1)OC(=O)c1cc2ccccc2s1.[I-] (centres unmarked) [Example 35, N-[2-((Benzo[b]thiophene-2-carbonyl)oxy)propyl]-N,N-dimethyl-cyclohexanaminium iodide]
hTRPV1-N1E Nav 0.1 mM (% inhibition) 25° C.: 35 (N = 4) %
hTRPV1-N1E Nav 0.1 mM (% inhibition) 47° C.: 74 (N = 4) %
